This experiment relates to C57BL/6J male mice. The experiment can be described thus: Crossover peptide injection trial in mice (food intake and body weight). To be noted: intraperitoneal injection at 5pm, change measured 16 h after injection, C57BL/6J male mice at 14 weeks, compared to vehicle injection. Type of experiment: in vivo. On the procedure:
FIG. 6: Analysis of erusiolin producing cells, secretion in response to food and effects of erusiolin injection in mice. […] Staining is consistent with erusiolin positivity in rare enteroendocrine cell populations. […] Each line is one participant. […] Animals were randomised to the sequence of treatment days that were random in order, with washout days between injection treatment days. Peptides were injected at 5pm before the night phase and the change in body weight and food intake measured after 16 h. (n=14) ***P<0.001,*P<0.05. Erusiolin refers to the synthetic peptide of sequence APFLLEDPANQFLRL (SEQ ID NO: 2), DPP4-cleaved refers to the synthetic peptide of sequence FLLEDPANQFLRL (SEQ ID NO: 3).
In these experiments “erusiolin” refers to the synthetic peptide of sequence APFLLEDPANQFLRL (SEQ ID NO: 2), “DPP4-cleaved” refers to the synthetic peptide of sequence FLLEDPANQFLRL (SEQ ID NO: 3). These peptides were synthesised and purified as the TFA-salt by a commercial supplier (Genscript), which generated 10 mg of each peptide at >90% purity. TFA removal and formation of the HCL-peptide salt was performed by freeze-drying the peptide solution (in LC-grade H2O) for 16 h and resuspension in 500 uL of 10 mM HC1 in LC-grade H2O. This solution was then freeze-dried for 16 h. A total of three rounds of 10 mM HC1 resuspension and freeze-drying for 16 h were performed. After the final drying step, the peptides were resuspended in LC-grade H2O. The peptide solutions were analysed for TFA contamination and determination of the peptide concentration using FT-IR spectroscopy. No TFA contamination was observed and the final peptide concentrations were 5 mg/mL in LC-grade H2O. Peptides were diluted in vehicle (1 mg/ml mouse albumin in PBS) before injection.
C57BL/6J male mice at 14 weeks of age were treated with either vehicle, erusiolin, or the DPP4-cleaved peptide in a crossover trial study using intraperitoneal injection of the peptides. Each mouse was randomly allocated to a sequence of treatments. Each sequence had treatments in a random order. One treatment was performed per mouse per day and injections were at 5pm just before the night feeding period. Between each treatment day a washout day was included where no injection was performed to allow the previous days treatment to be degraded and minimise confounding effects. The food intake and body weight of each animal was measured just prior to injection and again 16 h after injection. This enable the calculation of the mass delta (change) for food intake and body mass. A repeated-measures one-way ANOVA was used to determine significance between the vehicle negative control treatment and the other treatments. Statistical analyses were performed using R (version 3.4.3) and processed data was plotted using Tableau (version 10.0.2). […]

As for APFLLEDPANQFLRL [erusiolin], the body weight result is recorded as “significant decrease” and the food intake result is given as “significant decrease”.

On to FLLEDPANQFLRL [DPP4-cleaved], for which the body weight result is reported as “not significant or less significant” and the food intake result is recorded as “not significant or less significant”.
